Experimental data reported in the NIST ThermoML archive (doi:10.1021/je500275j).

Assay: xn = mol fraction of the nth substance listed
Conditions: 100 kPa, Liquid; for viscosity: Falling or rolling sphere viscometry; for mass density: Vibrating tube method

C1CCC(C2CCCCC2)CC1 [1,1'-bicyclohexyl] + CCCCC1CCCCC1
Conditions	mass density [kg/m3]	viscosity [mPa·s]
293.15 K, x1 = 0.1002	809.11	1.43
293.15 K, x1 = 0.2003	818.37	1.585
293.15 K, x1 = 0.2997	827.41	1.757
293.15 K, x1 = 0.4002	836.41	1.952
293.15 K, x1 = 0.4999	845.11	2.184
293.15 K, x1 = 0.6011	853.76	2.45
293.15 K, x1 = 0.7003	862.14	2.759
293.15 K, x1 = 0.7999	870.34	3.132
293.15 K, x1 = 0.9008	878.53	3.563
293.15 K, x1 = 1	886.39	4.017
298.15 K, x1 = 0.1002	805.38	1.311
298.15 K, x1 = 0.2003	814.66	1.449
298.15 K, x1 = 0.2997	823.71	1.6
298.15 K, x1 = 0.4002	832.69	1.772
298.15 K, x1 = 0.4999	841.44	1.975
298.15 K, x1 = 0.6011	850.11	2.205
298.15 K, x1 = 0.7003	858.51	2.471
298.15 K, x1 = 0.7999	866.72	2.797
298.15 K, x1 = 0.9008	874.92	3.15
298.15 K, x1 = 1	882.79	3.541
303.15 K, x1 = 0.1002	801.64	1.209
303.15 K, x1 = 0.2003	810.94	1.332
303.15 K, x1 = 0.2997	820.01	1.466
303.15 K, x1 = 0.4002	829.01	1.619
303.15 K, x1 = 0.4999	837.77	1.796
303.15 K, x1 = 0.6011	846.46	1.998
303.15 K, x1 = 0.7003	854.87	2.231
303.15 K, x1 = 0.7999	863.09	2.508
303.15 K, x1 = 0.9008	871.31	2.812
303.15 K, x1 = 1	879.19	3.145
308.15 K, x1 = 0.1002	797.9	1.12
308.15 K, x1 = 0.2003	807.21	1.229
308.15 K, x1 = 0.2997	816.31	1.349
308.15 K, x1 = 0.4002	825.32	1.485
308.15 K, x1 = 0.4999	834.1	1.643
308.15 K, x1 = 0.6011	842.81	1.821
308.15 K, x1 = 0.7003	851.24	2.022
308.15 K, x1 = 0.7999	859.47	2.272
308.15 K, x1 = 0.9008	867.7	2.53
308.15 K, x1 = 1	875.6	2.817
313.15 K, x1 = 0.1002	794.15	1.041
313.15 K, x1 = 0.2003	803.48	1.139
313.15 K, x1 = 0.2997	812.6	1.247
313.15 K, x1 = 0.4002	821.64	1.368
313.15 K, x1 = 0.4999	830.43	1.508
313.15 K, x1 = 0.6011	839.15	1.665
313.15 K, x1 = 0.7003	847.6	1.844
313.15 K, x1 = 0.7999	855.85	2.061
313.15 K, x1 = 0.9008	864.1	2.288
313.15 K, x1 = 1	872.01	2.54
318.15 K, x1 = 0.1002	790.39	0.971
318.15 K, x1 = 0.2003	799.75	1.059
318.15 K, x1 = 0.2997	808.89	1.157
318.15 K, x1 = 0.4002	817.94	1.265
318.15 K, x1 = 0.4999	826.76	1.391
318.15 K, x1 = 0.6011	835.5	1.532
318.15 K, x1 = 0.7003	843.97	1.689
318.15 K, x1 = 0.7999	852.23	1.883
318.15 K, x1 = 0.9008	860.5	2.082
318.15 K, x1 = 1	868.43	2.302

CCC1CCCCC1 [ethylcyclohexane] + C1CCC(C2CCCCC2)CC1
Conditions	mass density [kg/m3]	viscosity [mPa·s]
293.15 K, x2 = 0	788.23	0.851
293.15 K, x2 = 0.1001	801.13	0.996
293.15 K, x2 = 0.2003	813.19	1.164
293.15 K, x2 = 0.3001	824.41	1.369
293.15 K, x2 = 0.4002	835.03	1.621
293.15 K, x2 = 0.498	844.69	1.848
293.15 K, x2 = 0.5996	854.14	2.139
293.15 K, x2 = 0.6996	862.93	2.451
293.15 K, x2 = 0.7983	871.02	2.874
293.15 K, x2 = 0.901	879.05	3.379
298.15 K, x2 = 0	784.2	0.796
298.15 K, x2 = 0.1001	797.17	0.934
298.15 K, x2 = 0.2003	809.29	1.079
298.15 K, x2 = 0.3001	820.56	1.264
298.15 K, x2 = 0.4002	831.23	1.488
298.15 K, x2 = 0.498	840.93	1.685
298.15 K, x2 = 0.5996	850.42	1.94
298.15 K, x2 = 0.6996	859.24	2.21
298.15 K, x2 = 0.7983	867.36	2.574
298.15 K, x2 = 0.901	875.42	3.003
303.15 K, x2 = 0	780.16	0.748
303.15 K, x2 = 0.1001	793.2	0.874
303.15 K, x2 = 0.2003	805.38	1.004
303.15 K, x2 = 0.3001	816.7	1.173
303.15 K, x2 = 0.4002	827.42	1.372
303.15 K, x2 = 0.498	837.16	1.547
303.15 K, x2 = 0.5996	846.72	1.77
303.15 K, x2 = 0.6996	855.55	2.005
303.15 K, x2 = 0.7983	863.7	2.322
303.15 K, x2 = 0.901	871.8	2.689
308.15 K, x2 = 0	776.11	0.704
308.15 K, x2 = 0.1001	789.22	0.82
308.15 K, x2 = 0.2003	801.46	0.938
308.15 K, x2 = 0.3001	812.84	1.091
308.15 K, x2 = 0.4002	823.6	1.258
308.15 K, x2 = 0.498	833.39	1.428
308.15 K, x2 = 0.5996	842.97	1.626
308.15 K, x2 = 0.6996	851.86	1.828
308.15 K, x2 = 0.7983	860.05	2.106
308.15 K, x2 = 0.901	868.18	2.425
313.15 K, x2 = 0	772.04	0.665
313.15 K, x2 = 0.1001	785.22	0.77
313.15 K, x2 = 0.2003	797.53	0.879
313.15 K, x2 = 0.3001	808.96	1.018
313.15 K, x2 = 0.4002	819.79	1.175
313.15 K, x2 = 0.498	829.62	1.32
313.15 K, x2 = 0.5996	839.25	1.492
313.15 K, x2 = 0.6996	848.18	1.675
313.15 K, x2 = 0.7983	856.4	1.92
313.15 K, x2 = 0.901	864.56	2.197
318.15 K, x2 = 0	767.96	0.629
318.15 K, x2 = 0.1001	781.22	0.727
318.15 K, x2 = 0.2003	793.59	0.825
318.15 K, x2 = 0.3001	805.08	0.951
318.15 K, x2 = 0.4002	815.96	1.094
318.15 K, x2 = 0.498	825.85	1.225
318.15 K, x2 = 0.5996	835.52	1.381
318.15 K, x2 = 0.6996	844.5	1.542
318.15 K, x2 = 0.7983	852.76	1.759
318.15 K, x2 = 0.901	860.95	2.002
